How the values were obtained:
[1] = tested on: dextran sulfate sodium (DSS) induced colitis model; experiment: DSS induced colitis model in mice; assay type: in vivo, C57BL/6 mice
Experimental: • 6.1 Purpose of the study: In order to verify the effect of the test sample on dextran sulfate sodium (DSS) induced colitis model in […] mice. • 6.2 Experimental design for inducing colitis: The mice in the vehicle and administration groups were administered on Day 0 for 1 h, and the mice freely drank water containing 3% DSS until Day 7, after Day 8, the mice were euthanized and their colon was taken for analysis. C57BL/6 mice, 8 weeks of age, 18-20 g, female. Administration was started on Day 0 to Day 7 for both the vehicle and administration groups. • 6.3 Drinking water containing DSS: The appropriate amount of DSS powder was dissolved in autoclaved drinking water and configured as a 3% DSS solution. • 6.4 Administration: Animals of group 1 were given the vehicle, animals of group 2 were given compound 5, and animals of group 3 were given normal drinking water and the vehicle, the vehicle was 5% DMSO/10% Solutol solution/0.2% Tween80/84.8% aqueous solution, with twice a day. 6.5 Measurement 6.5.1 Weight
Recording frequency was once a day, Days 0 to 8.
The recording frequency is once a day, Days 0 to 8, and is rated at 4 grades according to the following criteria: • Weight change (0, ≤1%; 1, 1-5%; 2, 6-10%; 3, 11-20%; 4, >20%). • Hematochezia (0, negative; 1, weakly positive for occult blood; 2, positive for occult blood; 3, significant hematochezia; 4, massive hematochezia) • Stool score (0, normal; 1, soft stool; 2, flaccid stool; 3, loose stool; 4, diarrhea)
The daily disease index is obtained by adding the scores of the above three parts.
On Day 8, all animals received an overdose of CO2 and were executed by cervical dislocation. The abdominal cavity was cut open and the colon of the mice was taken, the tissue around the colon was removed, and the longitudinal length from the ileocecum to the anus was measured and the whole was photographed. The colon was dissected, the intestinal contents were cleaned, weighed separately, and the stool consistency was recorded.
The colonic tissue was divided into two longitudinally and one was fixed in 10% neutral paraformaldehyde in the form of “Swiss” rolls.
The experimental data were expressed as mean±standard error (S.E.M.). Data were adopted by GraphPad Prism and analyzed by ANOVA statistical method. P<0.05 was considered as statistical difference.

[2] = molecular target: T1, Abl(h) (Homo sapiens, UniProt P00519); experiment: Eurofins KinaseProfiler kinase selectivity; assay type: biochemical; settings: compound at 1 μM; ATP 45 μM; read-out: Residual enzyme activity
T1 construct: purchased Eurofins (KinaseProfiler platform)
Experimental: (§1) This experiment aims to study the activity and selectivity of the compounds towards kinases selected from the Eurofins KinaseProfiler™ platform. The compounds against each selected kinase were tested using the KinaseProfiler™ experimental procedure of Eurofins standard, which follows the relevant standard operating procedures. Protein kinases (except ATM(h) and DNA-PK(h)) were tested by […], while lipid kinases, ATM(h), ATR/ATRIP(h) and DNA-PK(h) were tested by HRTF®.
(§2) Compound powders were prepared into 10 mM mother liquor through 100% DMSO solution and then diluted to 50× liquid.
(§3) An appropriate amount of 50× storage solution of the test compound was taken into the test wells, and then the kinase and substrate were added and mixed well. A certain concentration of ATP was added to start the reaction.
(§4) Data were processed using custom in-house analysis software.
(§5) The kinase off-target study in vitro of compound 5 of the present disclosure was carried out to evaluate the inhibitory activity against 15 common kinases at a concentration of 1 μM of the drug, and the results are as shown in Table 6.

[3] = molecular target: T2, Flt3(h) (Homo sapiens, UniProt P36888); experiment: Eurofins KinaseProfiler kinase selectivity; assay type: biochemical; settings: compound at 1 μM; ATP 200 μM; read-out: Residual enzyme activity
T2 construct: purchased Eurofins (KinaseProfiler platform)
Experimental: as §1, §2, §3, §4, §5

[4] = molecular target: T3, JAK2(h) (Homo sapiens, UniProt O60674); experiment: Eurofins KinaseProfiler kinase selectivity; assay type: biochemical; settings: compound at 1 μM; ATP 45 μM; read-out: Residual enzyme activity
T3 construct: purchased Eurofins (KinaseProfiler platform)
Experimental: as §1, §2, §3, §4, §5

[5] = molecular target: T4, KDR(h) (Homo sapiens, UniProt P35968); experiment: Eurofins KinaseProfiler kinase selectivity; assay type: biochemical; settings: compound at 1 μM; ATP 90 μM; read-out: Residual enzyme activity
T4 construct: purchased Eurofins (KinaseProfiler platform)
Experimental: as §1, §2, §3, §4, §5

[6] = molecular target: T5, MST1(h) (Homo sapiens, UniProt Q13043); experiment: Eurofins KinaseProfiler kinase selectivity; assay type: biochemical; settings: compound at 1 μM; ATP 90 μM; read-out: Residual enzyme activity
T5 construct: purchased Eurofins (KinaseProfiler platform)
Experimental: as §1, §2, §3, §4, §5

[7] = molecular target: T6, GSK3β(h) (Homo sapiens, UniProt P49841); experiment: Eurofins KinaseProfiler kinase selectivity; assay type: biochemical; settings: compound at 1 μM; ATP 15 μM; read-out: Residual enzyme activity
T6 construct: purchased Eurofins (KinaseProfiler platform)
Experimental: as §1, §2, §3, §4, §5

[8] = molecular target: T7, ALK(h) (Homo sapiens, UniProt Q9UM73); experiment: Eurofins KinaseProfiler kinase selectivity; assay type: biochemical; settings: compound at 1 μM; ATP 200 μM; read-out: Residual enzyme activity
T7 construct: purchased Eurofins (KinaseProfiler platform)
Experimental: as §1, §2, §3, §4, §5

[9] = molecular target: T8, Fyn(h) (Homo sapiens, UniProt P06241); experiment: Eurofins KinaseProfiler kinase selectivity; assay type: biochemical; settings: compound at 1 μM; ATP 70 μM; read-out: Residual enzyme activity
T8 construct: purchased Eurofins (KinaseProfiler platform)
Experimental: as §1, §2, §3, §4, §5

[10] = molecular target: DHODH enzyme (Homo sapiens, UniProt Q02127); experiment: DHODH enzyme inhibitory activity in vitro (resazurin fluorescence); assay type: biochemical; settings: 5 nM DHODH, 15 μM L-DHO, 80 μM Resazurin
Text: The DHODH inhibitory activity of the compounds was detected by the following experimental method, and the experimental results are as shown in Table 1.
DHODH uses flavin mononucleotide FMN to catalyze the oxidation of dihydrooratic acid DHO to produce oratic acid, while the re-oxidation of FMN requires the participation of coenzyme CoQ. In the experiment of detecting the DHODH enzyme activity, CoQ was replaced by Resazurin dye as the final electron acceptor in the enzyme activity reaction. Resazurin solution is blue, and the resorufin generated after reduction has red fluorescence, and the fluorescence signal can be detected under the 535 nm of excitation wavelength and the 590 nm of emission wavelength. The components of the reaction buffer used in the experiment were 100 mM Hepes pH 7.0, 150 mM NaCl, 0.3% CHAPS, 0.5 mg/mL BSA, 0.1 μM FMN and 1% DMSO. The final concentration of DHODH enzyme in the reaction system was 5 nM, and the final concentration of substrate L-DHO was 15 μM, the final concentration of indicator Resazurin was 80 μM. The components of the reaction stop buffer were 100 mM Hepes pH 7.0 and 5 mM Orotate. The specific method was as follows: 2-fold final concentration of the DHODH enzyme solution was mixed with the compound, incubated at room temperature for 20 min, 2-fold final concentration of the substrate mixture solution of L-DHO and resazurin was added and reacted, incubated at room temperature away from light for 45 min. Then the reaction was stopped by adding 2-fold final concentration of the reaction stop buffer to the reaction system, and incubated at room temperature for 10 min, the fluorescence signal of the reaction system was detected with EnVision under the condition of Ex/Em=535/590 nm.

[11] = tested on: influenza virus A/Weiss/43 (H1N1); experiment: Influenza virus cytopathic effect (CPE) experiment in MDCK cells; assay type: cell-based; settings: unidentified influenza virus, H1N1, 120 h, 5 days incubation, CCK8
[12] = 5 mpk/BID, compared with the modeling group, p<0.0001

DHODH enzyme, sequence (Q02127 whole entry): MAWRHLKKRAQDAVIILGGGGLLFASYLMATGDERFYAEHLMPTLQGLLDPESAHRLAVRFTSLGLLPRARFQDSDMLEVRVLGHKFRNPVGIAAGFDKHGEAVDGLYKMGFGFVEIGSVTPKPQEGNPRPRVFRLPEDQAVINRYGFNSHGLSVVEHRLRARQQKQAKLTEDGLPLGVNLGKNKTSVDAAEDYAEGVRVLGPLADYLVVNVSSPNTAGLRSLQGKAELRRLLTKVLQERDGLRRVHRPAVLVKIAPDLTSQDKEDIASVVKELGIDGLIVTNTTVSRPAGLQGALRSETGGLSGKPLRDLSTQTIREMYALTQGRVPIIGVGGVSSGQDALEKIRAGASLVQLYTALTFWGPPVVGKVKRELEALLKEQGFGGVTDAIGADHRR
T8 sequence (P06241 whole entry): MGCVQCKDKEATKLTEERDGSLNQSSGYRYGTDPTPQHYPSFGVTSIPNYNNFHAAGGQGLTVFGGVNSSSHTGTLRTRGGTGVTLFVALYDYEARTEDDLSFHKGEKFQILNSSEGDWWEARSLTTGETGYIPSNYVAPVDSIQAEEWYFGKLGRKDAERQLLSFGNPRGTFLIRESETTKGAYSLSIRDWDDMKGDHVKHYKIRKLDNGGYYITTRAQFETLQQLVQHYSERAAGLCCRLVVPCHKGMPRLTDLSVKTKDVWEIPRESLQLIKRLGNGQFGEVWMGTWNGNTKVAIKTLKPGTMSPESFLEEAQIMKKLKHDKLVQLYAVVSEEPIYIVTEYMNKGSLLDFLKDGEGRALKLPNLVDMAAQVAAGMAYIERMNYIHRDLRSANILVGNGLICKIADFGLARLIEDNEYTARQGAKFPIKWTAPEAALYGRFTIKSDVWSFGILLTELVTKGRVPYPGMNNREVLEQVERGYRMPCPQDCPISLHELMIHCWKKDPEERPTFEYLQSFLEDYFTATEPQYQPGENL
T6 sequence (P49841 whole entry): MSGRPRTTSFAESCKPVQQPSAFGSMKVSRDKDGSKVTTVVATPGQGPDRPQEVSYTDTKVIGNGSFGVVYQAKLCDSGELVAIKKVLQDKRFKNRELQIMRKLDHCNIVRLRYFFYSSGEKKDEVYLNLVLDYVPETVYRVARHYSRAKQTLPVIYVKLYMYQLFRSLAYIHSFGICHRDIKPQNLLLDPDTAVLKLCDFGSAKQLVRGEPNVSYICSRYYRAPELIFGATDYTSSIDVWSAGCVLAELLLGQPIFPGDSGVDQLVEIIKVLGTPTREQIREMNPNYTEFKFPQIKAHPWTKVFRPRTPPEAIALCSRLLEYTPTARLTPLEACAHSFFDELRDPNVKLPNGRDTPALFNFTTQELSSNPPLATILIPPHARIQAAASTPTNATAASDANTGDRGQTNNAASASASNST
T3 sequence (O60674 whole entry): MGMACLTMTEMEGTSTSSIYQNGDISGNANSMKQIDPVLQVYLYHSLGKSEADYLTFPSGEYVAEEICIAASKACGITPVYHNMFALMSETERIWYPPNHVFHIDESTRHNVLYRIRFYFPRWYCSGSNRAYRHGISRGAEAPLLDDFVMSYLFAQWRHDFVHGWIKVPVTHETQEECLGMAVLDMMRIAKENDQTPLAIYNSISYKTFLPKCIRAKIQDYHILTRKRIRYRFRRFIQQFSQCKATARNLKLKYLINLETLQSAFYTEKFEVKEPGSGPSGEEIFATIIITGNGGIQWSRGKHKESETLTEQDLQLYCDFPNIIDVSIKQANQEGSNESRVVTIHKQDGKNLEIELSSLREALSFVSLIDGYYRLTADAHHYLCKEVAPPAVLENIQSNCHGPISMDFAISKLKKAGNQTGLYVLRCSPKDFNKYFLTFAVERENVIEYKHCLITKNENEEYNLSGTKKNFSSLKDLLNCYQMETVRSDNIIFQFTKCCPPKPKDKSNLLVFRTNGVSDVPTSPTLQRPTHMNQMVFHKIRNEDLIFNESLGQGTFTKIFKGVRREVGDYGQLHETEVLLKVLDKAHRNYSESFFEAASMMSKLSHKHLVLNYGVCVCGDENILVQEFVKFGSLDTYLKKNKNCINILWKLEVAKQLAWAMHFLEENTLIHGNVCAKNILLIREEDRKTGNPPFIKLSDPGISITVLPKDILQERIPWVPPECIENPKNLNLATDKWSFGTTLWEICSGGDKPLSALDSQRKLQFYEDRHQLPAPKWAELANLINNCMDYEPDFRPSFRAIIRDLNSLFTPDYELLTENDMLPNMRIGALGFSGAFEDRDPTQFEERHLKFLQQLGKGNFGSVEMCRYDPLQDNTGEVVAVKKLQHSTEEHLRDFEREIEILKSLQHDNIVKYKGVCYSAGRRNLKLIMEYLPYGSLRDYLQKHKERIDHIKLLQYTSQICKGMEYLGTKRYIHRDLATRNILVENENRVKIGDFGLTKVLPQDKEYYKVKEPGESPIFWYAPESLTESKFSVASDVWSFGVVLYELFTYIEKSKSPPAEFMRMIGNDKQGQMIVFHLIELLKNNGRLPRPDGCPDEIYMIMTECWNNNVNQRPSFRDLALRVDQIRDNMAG
T5 sequence (Q13043 whole entry): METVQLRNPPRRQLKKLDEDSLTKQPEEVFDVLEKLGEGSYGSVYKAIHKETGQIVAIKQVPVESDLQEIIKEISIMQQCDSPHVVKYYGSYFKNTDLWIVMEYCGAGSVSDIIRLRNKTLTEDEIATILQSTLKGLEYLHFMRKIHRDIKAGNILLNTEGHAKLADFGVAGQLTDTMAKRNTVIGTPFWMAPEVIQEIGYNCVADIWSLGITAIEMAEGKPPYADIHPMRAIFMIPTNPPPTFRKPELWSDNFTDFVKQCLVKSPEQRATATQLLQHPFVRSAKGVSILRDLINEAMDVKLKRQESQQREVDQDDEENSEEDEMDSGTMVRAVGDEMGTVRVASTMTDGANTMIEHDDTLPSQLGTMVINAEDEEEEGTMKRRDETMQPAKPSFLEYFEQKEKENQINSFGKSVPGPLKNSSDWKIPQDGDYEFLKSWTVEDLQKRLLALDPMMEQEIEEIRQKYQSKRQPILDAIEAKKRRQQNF
T2 sequence (P36888 27-993): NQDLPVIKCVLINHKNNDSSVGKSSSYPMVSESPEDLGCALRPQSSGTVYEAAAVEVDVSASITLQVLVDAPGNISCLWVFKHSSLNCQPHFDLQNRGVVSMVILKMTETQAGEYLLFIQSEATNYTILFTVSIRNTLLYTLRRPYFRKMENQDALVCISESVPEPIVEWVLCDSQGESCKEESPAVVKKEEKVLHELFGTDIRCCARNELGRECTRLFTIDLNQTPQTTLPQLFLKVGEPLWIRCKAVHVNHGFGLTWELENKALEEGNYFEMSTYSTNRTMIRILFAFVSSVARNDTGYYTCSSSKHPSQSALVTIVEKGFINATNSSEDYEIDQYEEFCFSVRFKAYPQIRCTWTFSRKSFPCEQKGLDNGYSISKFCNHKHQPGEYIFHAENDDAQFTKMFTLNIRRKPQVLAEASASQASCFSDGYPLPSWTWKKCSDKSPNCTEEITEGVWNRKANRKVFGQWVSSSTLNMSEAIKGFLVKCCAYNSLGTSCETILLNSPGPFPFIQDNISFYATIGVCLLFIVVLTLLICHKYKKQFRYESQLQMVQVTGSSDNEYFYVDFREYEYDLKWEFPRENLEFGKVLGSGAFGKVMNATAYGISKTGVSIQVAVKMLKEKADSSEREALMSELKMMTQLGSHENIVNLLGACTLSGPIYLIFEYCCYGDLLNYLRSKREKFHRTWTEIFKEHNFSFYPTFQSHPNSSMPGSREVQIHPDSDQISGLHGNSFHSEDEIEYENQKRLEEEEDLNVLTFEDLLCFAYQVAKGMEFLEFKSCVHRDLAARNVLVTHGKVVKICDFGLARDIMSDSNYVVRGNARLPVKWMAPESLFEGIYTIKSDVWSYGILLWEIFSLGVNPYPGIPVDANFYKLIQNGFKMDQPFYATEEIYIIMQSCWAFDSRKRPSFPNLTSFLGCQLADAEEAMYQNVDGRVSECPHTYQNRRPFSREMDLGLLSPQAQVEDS
T1 sequence (P00519 whole entry): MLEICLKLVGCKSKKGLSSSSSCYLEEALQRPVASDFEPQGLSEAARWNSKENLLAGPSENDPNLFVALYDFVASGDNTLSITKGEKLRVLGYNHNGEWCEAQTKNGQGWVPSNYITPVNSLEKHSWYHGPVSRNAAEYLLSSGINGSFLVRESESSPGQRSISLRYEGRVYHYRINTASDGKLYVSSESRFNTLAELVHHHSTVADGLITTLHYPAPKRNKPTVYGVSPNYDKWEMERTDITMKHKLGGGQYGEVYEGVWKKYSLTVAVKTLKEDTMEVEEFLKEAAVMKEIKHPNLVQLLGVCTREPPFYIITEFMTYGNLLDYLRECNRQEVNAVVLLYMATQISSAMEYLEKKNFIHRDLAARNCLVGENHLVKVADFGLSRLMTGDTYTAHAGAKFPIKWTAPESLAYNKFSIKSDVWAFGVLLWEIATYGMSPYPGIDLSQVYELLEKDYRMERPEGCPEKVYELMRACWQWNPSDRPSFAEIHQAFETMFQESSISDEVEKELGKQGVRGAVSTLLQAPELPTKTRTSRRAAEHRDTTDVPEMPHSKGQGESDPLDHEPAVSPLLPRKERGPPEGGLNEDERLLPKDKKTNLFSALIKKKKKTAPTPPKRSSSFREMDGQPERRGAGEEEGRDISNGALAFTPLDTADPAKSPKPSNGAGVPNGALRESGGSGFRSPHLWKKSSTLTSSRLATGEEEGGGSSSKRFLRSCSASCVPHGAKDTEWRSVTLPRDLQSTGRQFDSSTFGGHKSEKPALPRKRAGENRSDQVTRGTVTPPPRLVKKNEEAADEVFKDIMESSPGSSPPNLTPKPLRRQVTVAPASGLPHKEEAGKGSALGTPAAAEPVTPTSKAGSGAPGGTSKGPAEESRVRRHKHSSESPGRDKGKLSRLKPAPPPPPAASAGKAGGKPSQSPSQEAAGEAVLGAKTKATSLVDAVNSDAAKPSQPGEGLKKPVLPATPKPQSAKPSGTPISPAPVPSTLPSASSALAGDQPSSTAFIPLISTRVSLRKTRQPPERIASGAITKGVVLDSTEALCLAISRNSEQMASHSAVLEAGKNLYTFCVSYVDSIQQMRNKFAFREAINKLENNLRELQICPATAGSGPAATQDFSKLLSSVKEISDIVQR

`CCn1c(CO)nn(-c2cc(O[C@@H](C)C(F)(F)F)c(/C(F)=C/c3ncccc3Cl)cc2F)c1=O` [Compound 5] was tested, and the “Level of inflammatory factor TNF-α in the colonic mucosa” value ([1]; 5 mg/kg BID, Day 8, p<0.05 compared with the modeling group) was “effectively reduces”, the “Colon length (colonic shortening) at the experimental endpoint” value [1, 12] was “significantly improves” and the “Colonic density at the experimental endpoint” value [1, 12] was “significantly improves the inflammation-induced increase of colonic density”. The “DAI (Disease Activity Index) score” value ([1]; compared to the modeling group, administration for 6 days, Day 8 p<0.0001) was “significantly improved”, the Animal weight change ([1]; compared with the modeling group, p<0.01 on Day 8, twice a day) was “significantly slow down the weight loss of mice” and the remaining activity at 1 µM [2] was 88%. For the same compound, the remaining activity at 1 µM [3] was 84%, the remaining activity at 1 µM [4] was 81% and the remaining activity at 1 µM [5] was 90%. The remaining activity at 1 µM [6] was 96%, the remaining activity at 1 µM [7] was 126% and the remaining activity at 1 µM [8] was 94%. The remaining activity at 1 µM [9] was 121%, the IC50 [10] was 3.5 nM and the EC50 [11] was 70 nM.

— US12606540B2, “Triazolone compound” (MEDSHINE DISCOVERY INC., priority 2020, dated 2026)
